This is an account of results in US9453038B2, “Glucokinase activator compounds, compositions containing such compounds, and methods of treatment” (Merck Sharp & Dohme Corp., priority 2012, dated 2016).

Broadly, the EC50 is the concentration at which the effect is half-maximal. In general, Emax refers to the maximal effect, on the per cent scale that the assay sets.

This assay addresses Recombinant human liver glucokinase (FLAG fusion protein) (Homo sapiens (Human), UniProt P35557). Kind of assay: glucokinase (GK) activation assay, Thio-NADH formation coupled to G6PDH, absorbance at 405 nm. It counts as biochemical. The conditions noted are these: 2.5 mM Glu; for EC50: 30° C.; for Emax: OD value of DMSO control regarded as 100%, read-out: Emax. An excerpt: The glucokinase activity can, for instance, be determined without directly measuring glucose-6-phosphate by measuring the amount of Thio-NADH generated during the production of phosphogluconolactone from glucose-6-phosphate by a reporter enzyme glucose-6-phosphate dehydrogenase.
To test the exemplified compounds, the following assay was employed. Recombinant human liver glucokinase was expressed as a FLAG fusion protein in E. coli, and purified on ANTIFLAG M2 AFFINITY GEL (Sigma). The assay was carried out at 30° C. in a 96-well plate. In the plate was distributed 69 μl each of assay buffer (25 mM Hepes Buffer: pH=7.2, 2 mM MgCl2, 1 mM ATP, 0.5 mM TNAD, 1 mM dithiothreitol), to which was added 1 μl of a DMSO solution of the compound or DMSO as control. Then, 20 μl of pre-ice-cooled enzyme mixture (FLAG-GK, 20 U/ml G6PDH) was distributed thereto, to which was added 10 μl of 25 mM glucose as substrate to initiate the reaction (final glucose concentration=2.5 mM). After starting the reaction, the absorbance at 405 nm was measured every 30 seconds for 10 minutes to evaluate the compound based on the initial increase for 5 minutes. FLAG-GK was added so that the increase of absorbance after 5 minutes fell between 0.05 to 0.1 in the presence of 1% DMSO.
The OD values of the respective compounds were measured in the respective concentrations, wherein the OD value of DMSO as control is regarded as 100%. From the OD values at the respective concentrations, Emax (%, 2.5 mM Glu) and EC50 (nM, 2.5 mM Glu) were calculated and used as indicators of the GK activation capability of the compounds. According to the above assay, the GK activation capability of the exemplified compounds of the present invention was determined. […] Where different enantiomers of the same compound were tested, two numbers are provided. Where 3 numbers are provided, for example, Ex. #30, data for the racemic form is also shown.

Sequence of Recombinant human liver glucokinase (FLAG fusion protein) (P35557 other isoform, or with tags, fused parts or gaps): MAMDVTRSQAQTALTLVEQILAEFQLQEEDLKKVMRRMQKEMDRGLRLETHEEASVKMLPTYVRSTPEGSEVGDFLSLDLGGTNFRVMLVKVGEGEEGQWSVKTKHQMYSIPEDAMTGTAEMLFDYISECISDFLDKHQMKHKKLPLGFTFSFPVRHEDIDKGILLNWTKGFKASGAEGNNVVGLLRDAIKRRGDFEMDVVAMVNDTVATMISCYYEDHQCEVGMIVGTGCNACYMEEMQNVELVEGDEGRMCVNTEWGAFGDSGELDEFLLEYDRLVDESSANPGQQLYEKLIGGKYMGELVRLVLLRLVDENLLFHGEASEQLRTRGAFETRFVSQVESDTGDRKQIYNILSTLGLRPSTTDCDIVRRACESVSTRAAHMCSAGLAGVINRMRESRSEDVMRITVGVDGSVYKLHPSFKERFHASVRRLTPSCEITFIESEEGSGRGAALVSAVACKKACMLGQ

On to `CN1C(=O)CCC1c1cc2[nH]c(-c3nc(CC(=O)O)c(Cl)s3)cc2cc1Oc1ccc(S(C)(=O)=O)cc1` (stereo not shown) [Example 33, 2-(5-chloro-2-(6-(1-methyl-5-oxopyrrolidin-2-yl)-5-(4-(methylsulfonyl)phenoxy)-1H-indol-2-yl)thiazol-4-yl)acetic acid], for which the EC50 worked out at 0.0474 µM and the Emax came to 586%.

With `CN1C(=O)CCC1c1cc2[nH]c(-c3nc(CC(=O)O)cs3)cc2cc1Oc1ccc(S(C)(=O)=O)cc1` (stereo not shown) [Example 34, 2-(2-(6-(1-methyl-5-oxopyrrolidin-2-yl)-5-(4-(methylsulfonyl)phenoxy)-1H-indol-2-yl)thiazol-4-yl)acetic acid], the EC50 worked out at 0.118 µM and the Emax was 606%.

In the case of `COC(=O)CCc1cnc(-c2cc3cc(Oc4ccc(S(C)(=O)=O)cc4)c(C4CCC(=O)N4C)cc3[nH]2)s1` (stereo not shown) [Example 35, methyl 3-(2-(6-(1-methyl-5-oxopyrrolidin-2-yl)-5-(4-(methylsulfonyl)phenoxy)-1H-indol-2-yl)thiazol-5-yl)propanoate], the EC50 came to 0.0089 µM and the Emax turned out to be 656%.

Turning to `CN1C(=O)CCC1c1cc2[nH]c(-c3ncc(CCC(=O)O)s3)cc2cc1Oc1ccc(S(C)(=O)=O)cc1` (stereo not shown) [Example 36, 3-(2-(6-(1-methyl-5-oxopyrrolidin-2-yl)-5-(4-(methylsulfonyl)phenoxy)-1H-indol-2-yl)thiazol-5-yl)propanoic acid], the EC50 came to 0.0667 µM and the Emax turned out to be 619%.

On to `CCOP(=O)(Cc1cnc(-c2cc3cc(Oc4ccc(S(C)(=O)=O)nc4)c(C4CCC(=O)N4C)cc3[nH]2)s1)OCC` (stereo not shown) [Example 37, diethyl((2-(6-(1-methyl-5-oxopyrrolidin-2-yl)-5-((6-(methylsulfonyl)pyridin-3-yl)oxy)-1H-indol-2-yl)thiazol-5-yl)methyl)phosphonate], for which the EC50 came to 0.0235 µM and the Emax was found to be 696%.
